Three compounds from US20240246942A1, “KINASE INHIBITORS FOR THE TREATMENT OF NEURODEGENERATIVE DISEASES” (priority 2020, published 2024) can be followed below.

Like-named read-outs stand apart in the source and are kept apart here.

One data set addresses T1, CYP1A2 (Homo sapiens, UniProt P05177).
T1 sequence (P05177 1-516): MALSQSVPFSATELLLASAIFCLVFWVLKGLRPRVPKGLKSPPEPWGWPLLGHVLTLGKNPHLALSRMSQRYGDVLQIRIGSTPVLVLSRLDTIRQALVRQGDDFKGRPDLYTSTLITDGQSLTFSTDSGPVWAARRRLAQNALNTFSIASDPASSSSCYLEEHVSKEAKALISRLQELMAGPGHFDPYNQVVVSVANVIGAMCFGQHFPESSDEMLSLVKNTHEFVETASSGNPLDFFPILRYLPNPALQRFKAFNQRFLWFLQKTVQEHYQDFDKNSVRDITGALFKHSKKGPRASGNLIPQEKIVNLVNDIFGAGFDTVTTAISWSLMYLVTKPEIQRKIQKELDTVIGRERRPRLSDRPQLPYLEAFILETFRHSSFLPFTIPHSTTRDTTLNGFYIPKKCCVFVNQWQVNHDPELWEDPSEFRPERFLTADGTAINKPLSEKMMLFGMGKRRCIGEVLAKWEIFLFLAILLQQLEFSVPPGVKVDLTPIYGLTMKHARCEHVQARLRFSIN
Briefly: P450 cocktail inhibition assay, CYP1A2. Format: in vitro ADME. The note with it: at 10 μM. The procedure: P450s inhibition for four major isoforms are evaluated using a cocktail inhibition assay where the metabolism of specific marker substrate (CYP1A2 phenaceten […] to acetaminophen); CYP2C9, tolbutamide hydroxylation to hydrocytolbutamide; CYP2D6, bufuralol hydroxylation to […]; and CYP3A4, midazolam hydroxylation to 1′-Hydroxymidazolam) in the presence or absence of 10 TM probe compound is evaluated. The concentration of each marker substrate is approximately its Km. […] Specific inhibitors for each isoform are included in each run to validate the system.

The nature of data set [1]: Microsomal stability, human. Format: in vitro ADME. The note with it: human microsomes.
The target of data set [2] is T2, panel of 374 wild-type kinases (Homo sapiens, UniProt O14578).
T2 construct: purchased Reaction Biology Corporation
T2 sequence (O14578 whole entry): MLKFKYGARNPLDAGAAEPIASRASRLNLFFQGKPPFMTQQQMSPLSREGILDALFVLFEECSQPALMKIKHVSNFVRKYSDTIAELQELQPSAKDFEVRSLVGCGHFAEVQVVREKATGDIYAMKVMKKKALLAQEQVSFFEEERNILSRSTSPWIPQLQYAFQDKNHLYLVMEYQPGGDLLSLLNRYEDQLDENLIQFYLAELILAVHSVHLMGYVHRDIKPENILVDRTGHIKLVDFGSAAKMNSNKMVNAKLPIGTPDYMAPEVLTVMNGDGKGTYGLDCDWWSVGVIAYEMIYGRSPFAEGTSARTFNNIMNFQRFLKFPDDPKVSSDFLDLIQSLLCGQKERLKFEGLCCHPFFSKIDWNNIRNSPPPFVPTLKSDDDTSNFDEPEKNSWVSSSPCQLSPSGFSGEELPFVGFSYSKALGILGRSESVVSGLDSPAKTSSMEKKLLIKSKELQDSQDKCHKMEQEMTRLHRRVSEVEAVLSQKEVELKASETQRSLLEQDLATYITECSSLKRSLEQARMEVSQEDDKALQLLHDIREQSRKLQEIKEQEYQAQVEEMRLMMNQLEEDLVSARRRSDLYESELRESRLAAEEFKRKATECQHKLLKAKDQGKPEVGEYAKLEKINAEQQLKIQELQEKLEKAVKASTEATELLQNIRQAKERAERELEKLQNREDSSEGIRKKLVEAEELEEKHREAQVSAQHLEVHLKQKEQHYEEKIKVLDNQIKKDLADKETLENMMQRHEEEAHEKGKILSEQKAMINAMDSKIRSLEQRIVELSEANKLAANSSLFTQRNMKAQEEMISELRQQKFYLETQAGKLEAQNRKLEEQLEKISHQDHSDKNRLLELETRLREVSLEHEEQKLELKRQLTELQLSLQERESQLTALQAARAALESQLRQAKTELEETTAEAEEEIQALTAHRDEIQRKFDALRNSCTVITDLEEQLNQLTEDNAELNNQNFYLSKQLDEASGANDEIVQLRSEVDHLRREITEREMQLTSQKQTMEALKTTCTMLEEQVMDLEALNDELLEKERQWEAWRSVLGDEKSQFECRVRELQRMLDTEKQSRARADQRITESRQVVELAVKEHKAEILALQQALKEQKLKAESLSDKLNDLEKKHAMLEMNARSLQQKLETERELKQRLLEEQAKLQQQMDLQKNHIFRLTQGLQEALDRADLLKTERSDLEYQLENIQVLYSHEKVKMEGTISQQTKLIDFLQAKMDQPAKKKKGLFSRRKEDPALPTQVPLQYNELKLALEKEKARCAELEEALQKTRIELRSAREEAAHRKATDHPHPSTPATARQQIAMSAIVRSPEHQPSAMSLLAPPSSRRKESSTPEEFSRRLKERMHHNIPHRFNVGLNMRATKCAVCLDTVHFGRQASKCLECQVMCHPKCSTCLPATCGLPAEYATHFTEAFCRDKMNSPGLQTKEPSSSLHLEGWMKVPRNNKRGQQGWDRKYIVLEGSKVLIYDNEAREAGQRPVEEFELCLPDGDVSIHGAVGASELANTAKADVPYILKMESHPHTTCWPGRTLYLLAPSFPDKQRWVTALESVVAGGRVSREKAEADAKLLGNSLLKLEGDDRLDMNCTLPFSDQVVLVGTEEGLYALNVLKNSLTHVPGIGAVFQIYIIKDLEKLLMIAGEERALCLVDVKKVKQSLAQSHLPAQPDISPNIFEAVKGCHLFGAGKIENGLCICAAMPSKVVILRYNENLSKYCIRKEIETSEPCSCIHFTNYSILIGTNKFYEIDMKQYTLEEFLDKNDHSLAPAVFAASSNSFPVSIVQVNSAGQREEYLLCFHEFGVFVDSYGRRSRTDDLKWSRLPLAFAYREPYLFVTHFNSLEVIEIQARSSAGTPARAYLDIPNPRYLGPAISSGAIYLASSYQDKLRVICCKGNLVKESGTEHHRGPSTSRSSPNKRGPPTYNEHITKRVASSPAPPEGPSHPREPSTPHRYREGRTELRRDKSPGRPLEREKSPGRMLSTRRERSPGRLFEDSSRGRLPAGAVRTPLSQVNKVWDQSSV
Kind of data set: biochemical. The note with it: read-out: % Enzyme Activity (relative to DMSO controls), kinase STK21/CIT.

Data set [3] addresses T3, panel of 374 wild-type kinases (Homo sapiens, UniProt O43293).
T3 construct: purchased Reaction Biology Corporation
Briefly: biochemical. The note with it: read-out: % Enzyme Activity (relative to DMSO controls), kinase ZIPK/DAPK3.

Data set [4] concerns the target T4, panel of 374 wild-type kinases (Homo sapiens, UniProt P68400).
T4 construct: purchased Reaction Biology Corporation
Kind of data set: biochemical. The note with it: CK2a, read-out: % Enzyme Activity (relative to DMSO controls).

Data set [5] addresses T5, panel of 374 wild-type kinases (Homo sapiens, UniProt Q56UN5).
T5 construct: purchased Reaction Biology Corporation
Briefly: biochemical. The note with it: read-out: % Enzyme Activity (relative to DMSO controls), kinase YSK4/MAP3K19.

In data set [6] the target is T6, panel of 374 wild-type kinases (Homo sapiens, UniProt O60307).
T6 construct: purchased Reaction Biology Corporation
T6 sequence (O60307 whole entry): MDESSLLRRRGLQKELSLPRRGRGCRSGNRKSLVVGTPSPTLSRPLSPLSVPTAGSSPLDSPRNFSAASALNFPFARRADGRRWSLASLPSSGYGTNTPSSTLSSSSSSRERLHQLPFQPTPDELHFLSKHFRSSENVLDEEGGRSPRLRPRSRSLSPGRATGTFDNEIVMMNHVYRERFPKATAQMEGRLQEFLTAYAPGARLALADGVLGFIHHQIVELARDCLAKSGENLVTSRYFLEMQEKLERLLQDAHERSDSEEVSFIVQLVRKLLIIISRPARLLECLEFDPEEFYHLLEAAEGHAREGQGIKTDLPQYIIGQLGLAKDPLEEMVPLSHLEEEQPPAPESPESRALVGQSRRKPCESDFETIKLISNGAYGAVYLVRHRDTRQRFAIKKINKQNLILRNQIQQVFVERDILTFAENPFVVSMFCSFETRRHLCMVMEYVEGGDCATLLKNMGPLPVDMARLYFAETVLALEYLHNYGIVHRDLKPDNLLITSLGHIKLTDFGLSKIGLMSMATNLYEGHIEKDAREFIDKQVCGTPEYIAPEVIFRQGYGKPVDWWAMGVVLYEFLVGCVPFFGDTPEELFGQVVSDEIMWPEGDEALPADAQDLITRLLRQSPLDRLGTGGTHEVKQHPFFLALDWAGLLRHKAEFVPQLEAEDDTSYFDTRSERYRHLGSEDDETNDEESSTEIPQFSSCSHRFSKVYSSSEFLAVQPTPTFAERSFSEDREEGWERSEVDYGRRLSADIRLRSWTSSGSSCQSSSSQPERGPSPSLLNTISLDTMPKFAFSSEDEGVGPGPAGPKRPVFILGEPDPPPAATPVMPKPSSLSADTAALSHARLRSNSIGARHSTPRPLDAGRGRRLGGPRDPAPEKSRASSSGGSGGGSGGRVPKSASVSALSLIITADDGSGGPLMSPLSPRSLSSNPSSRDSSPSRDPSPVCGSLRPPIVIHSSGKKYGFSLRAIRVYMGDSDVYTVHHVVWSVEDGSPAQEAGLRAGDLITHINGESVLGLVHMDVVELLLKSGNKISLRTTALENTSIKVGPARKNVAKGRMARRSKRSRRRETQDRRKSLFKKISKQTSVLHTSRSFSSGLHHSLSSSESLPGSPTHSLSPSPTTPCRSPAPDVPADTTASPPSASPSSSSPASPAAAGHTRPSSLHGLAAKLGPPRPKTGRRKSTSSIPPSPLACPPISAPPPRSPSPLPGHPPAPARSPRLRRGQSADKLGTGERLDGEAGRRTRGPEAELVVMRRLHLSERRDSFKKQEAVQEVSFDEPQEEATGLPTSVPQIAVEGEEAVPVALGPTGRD
Kind of data set: biochemical. Particulars: read-out: % Enzyme Activity (relative to DMSO controls), MAST3.

Data set [7] has as its target T7, panel of 374 wild-type kinases (Homo sapiens, UniProt O15111).
T7 construct: purchased Reaction Biology Corporation
Briefly: biochemical. The note with it: read-out: % Enzyme Activity (relative to DMSO controls), IKKa/CHUK.

Data set [8] deals with T8, panel of 374 wild-type kinases (Homo sapiens, UniProt Q99640).
T8 construct: purchased Reaction Biology Corporation
Kind of data set: biochemical. Particulars: read-out: % Enzyme Activity (relative to DMSO controls), kinase PKMYT1; 5 uM.

The target in data set [9] is T9, panel of 374 wild-type kinases (Homo sapiens, UniProt Q9Y572).
T9 construct: purchased Reaction Biology Corporation
Kind of data set: biochemical. The note with it: read-out: % Enzyme Activity (relative to DMSO controls), kinase RIPK3; 5 uM.

Data set [10] deals with T10, panel of 374 wild-type kinases (Homo sapiens, UniProt Q00534).
T10 construct: purchased Reaction Biology Corporation
T10 sequence (Q00534 whole entry): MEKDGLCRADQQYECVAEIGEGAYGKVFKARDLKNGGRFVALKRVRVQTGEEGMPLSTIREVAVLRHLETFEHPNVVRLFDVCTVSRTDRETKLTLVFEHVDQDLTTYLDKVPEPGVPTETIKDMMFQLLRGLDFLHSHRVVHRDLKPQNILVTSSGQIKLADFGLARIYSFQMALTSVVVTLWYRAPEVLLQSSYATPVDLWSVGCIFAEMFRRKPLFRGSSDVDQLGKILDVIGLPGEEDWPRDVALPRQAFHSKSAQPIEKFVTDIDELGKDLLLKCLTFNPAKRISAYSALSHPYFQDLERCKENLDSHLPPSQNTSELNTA
Kind of data set: biochemical. Particulars: 5 uM.

For data set [11], the target named is T11, panel of 374 wild-type kinases (Homo sapiens, UniProt Q12852).
T11 construct: purchased Reaction Biology Corporation
Briefly: biochemical. The note with it: read-out: % Enzyme Activity (relative to DMSO controls), DLK/MAP3K12; 5 uM.

Data set [12] has as its target T12, panel of 374 wild-type kinases (Homo sapiens, UniProt P30291).
T12 construct: purchased Reaction Biology Corporation
Briefly: biochemical. The note with it: read-out: % Enzyme Activity (relative to DMSO controls), kinase WEE1; 5 uM.

Data set [13] deals with T13, panel of 374 wild-type kinases (Homo sapiens, UniProt Q02156).
T13 construct: purchased Reaction Biology Corporation
T13 sequence (Q02156 whole entry): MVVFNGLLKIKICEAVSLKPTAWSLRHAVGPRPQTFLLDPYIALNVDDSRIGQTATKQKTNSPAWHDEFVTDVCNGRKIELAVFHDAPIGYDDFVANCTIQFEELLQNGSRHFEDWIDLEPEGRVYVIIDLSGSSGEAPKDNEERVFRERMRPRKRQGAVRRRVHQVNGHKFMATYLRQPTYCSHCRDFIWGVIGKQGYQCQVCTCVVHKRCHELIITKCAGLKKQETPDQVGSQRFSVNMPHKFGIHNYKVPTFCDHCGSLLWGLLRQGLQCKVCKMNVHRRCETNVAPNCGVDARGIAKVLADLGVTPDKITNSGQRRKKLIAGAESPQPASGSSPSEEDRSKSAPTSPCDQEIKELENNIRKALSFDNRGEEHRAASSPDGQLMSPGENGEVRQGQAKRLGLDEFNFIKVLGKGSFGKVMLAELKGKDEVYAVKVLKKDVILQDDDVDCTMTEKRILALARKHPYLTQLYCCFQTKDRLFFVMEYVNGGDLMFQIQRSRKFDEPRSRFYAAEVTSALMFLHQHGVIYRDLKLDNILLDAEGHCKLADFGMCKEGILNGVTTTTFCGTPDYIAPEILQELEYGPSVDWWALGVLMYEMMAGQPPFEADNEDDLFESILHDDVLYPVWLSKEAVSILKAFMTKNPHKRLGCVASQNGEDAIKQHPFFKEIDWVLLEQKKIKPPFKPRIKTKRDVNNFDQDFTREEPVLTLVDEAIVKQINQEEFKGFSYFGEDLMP
Briefly: biochemical. The note with it: read-out: % Enzyme Activity (relative to DMSO controls), kinase PKCepsilon; 5 uM.

For data set [14], the target named is T14, panel of 374 wild-type kinases (Homo sapiens, UniProt Q8IY84).
T14 construct: purchased Reaction Biology Corporation
Kind of data set: biochemical. The note with it: read-out: % Enzyme Activity (relative to DMSO controls), NIM1; 5 uM.

Where [15] appears, read: read-out: % Enzyme Activity (relative to DMSO controls), CDK6/cyclin D1.
Where [16] appears, read: read-out: % Enzyme Activity (relative to DMSO controls), CDK6/cyclin D3.

T12 sequence (P30291 whole entry): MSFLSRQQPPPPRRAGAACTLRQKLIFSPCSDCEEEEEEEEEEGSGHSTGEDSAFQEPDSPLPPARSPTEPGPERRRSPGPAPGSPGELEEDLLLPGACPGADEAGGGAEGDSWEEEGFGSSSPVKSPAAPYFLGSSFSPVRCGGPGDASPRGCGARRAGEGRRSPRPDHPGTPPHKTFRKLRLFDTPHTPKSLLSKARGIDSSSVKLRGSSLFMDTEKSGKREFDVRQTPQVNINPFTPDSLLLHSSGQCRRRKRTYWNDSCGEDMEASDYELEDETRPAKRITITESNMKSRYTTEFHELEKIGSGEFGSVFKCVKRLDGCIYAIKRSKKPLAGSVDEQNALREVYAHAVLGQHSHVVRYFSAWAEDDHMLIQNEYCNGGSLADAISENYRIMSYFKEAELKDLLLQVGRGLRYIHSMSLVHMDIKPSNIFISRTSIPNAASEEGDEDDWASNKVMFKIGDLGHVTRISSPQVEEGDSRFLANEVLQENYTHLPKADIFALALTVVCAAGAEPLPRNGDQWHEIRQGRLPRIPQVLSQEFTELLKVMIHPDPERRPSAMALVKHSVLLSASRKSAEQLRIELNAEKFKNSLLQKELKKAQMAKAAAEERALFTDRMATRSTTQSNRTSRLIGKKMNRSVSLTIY

Turning to `Cc1sc(C(=O)NC2COC2)cc1-n1cc(NC(=O)Nc2c(F)cccc2Cl)cn1` [Compound 27, 4-(4-(3-(2-chloro-6-fluorophenyl)ureido)-1H-pyrazol-1-yl)-5-methyl-N-(oxetan-3-yl)thiophene-2-carboxamide], the “CYP-450 % inh. 1A2” value on CYP1A2 came out at 22%. For the same compound, the “Mic. stability t1/2 Human” value in data set [1] stood at 1.83 h. Besides, the remaining activity at 10 µM was determined as 98.8% in data set [2] (10 uM); 101% in data set [3] (10 uM); 97% in data set [4] (10 uM); 95.5% in data set [5] (10 uM); 96.7% in [6] (10 uM); 101% in [7] (10 uM).

In the case of `O=C(Nc1cnn(-c2csc(C(=O)NC3COC3)c2)c1)Nc1c(F)cccc1Cl` [Compound 25, 4-(4-(3-(2-chloro-6-fluorophenyl)ureido)-1H-pyrazol-1-yl)-N-(oxetan-3-yl)thiophene-2-carboxamide], on CYP1A2, the “CYP-450 % inh. 1A2” value is recorded as 36%. The “Mic. stability t1/2 Human” value in [1] was determined as 1.67 h. Also, the remaining activity at 5 µM in data set [8] was determined as 89.6%; in data set [9] it was 97.5%; in data set [10] (setting [15]), 105%; in data set [10] (setting [16]), 92.6%; in data set [11], 82.2%; in [3] (5 uM), 108%. The remaining activity at 5 µM in data set [12] worked out at 85.2%; in [4] (5 uM), 90.5%; in [6] (5 uM), 108%; in data set [13], 94.2%; in data set [14], 70.7%; in [7] (5 uM), 108%.

`O=C(Nc1cnn(-c2csc(C(=O)NC3COC3)c2)c1)Nc1ccccc1Cl` [Compound 17, 4-(4-(3-(2-chlorophenyl)ureido)-1H-pyrazol-1-yl)-N-(oxetan-3-yl)thiophene-2-carboxamide]: at CYP1A2, the “CYP-450 % inh. 1A2” value was found to be 6%. In addition, the “Mic. stability t1/2 Human” value in [1] is 1.1 h. Besides, the remaining activity at 5 µM is 87% in data set [8]; 101% in data set [9]; 95.4% in data set [10] (setting [15]); 114% in data set [10] (setting [16]); 90.1% in data set [2] (5 uM); 96.5% in data set [11]. In addition, the remaining activity at 5 µM worked out at 124% in data set [12], 105% in [5] (5 uM), 102% in [13] and 101% in data set [14].
